Several values for one entry are separate records, joined by “and”; a condition that tells them apart may be missing. Equal values may be shown once. Entries after “also recorded” stand apart in the source; their conditions may differ.
What was measured:
living monkey eye [1] = settings: in vivo
living monkey eye [2] = test: Pupil size and refraction after topical H-7; type: in vivo, cynomolgus monkeys; settings: H-7 150 mM topical, six monkeys
[3] = tested on: ciliary muscle-disinserted monkey eyes; test: Outflow facility in ciliary muscle-disinserted eyes; type: in vivo, cynomolgus and rhesus monkeys; settings: H-7 300 μM, nine monkeys
[4] = tested on: normal living monkey eyes; test: Miotic and accommodative response to intramuscular pilocarpine; type: in vivo, monkeys
ciliary muscle strip = test: Pilocarpine-induced contraction of isolated ciliary muscle strip (muscle chamber); design: species or system rhesus monkeys (Macaca mulatta)
corneal endothelium = settings: cynomolgus monkey, in vivo

SMILES: CC1CNCCN1S(=O)(=O)c1cccc2cnccc12 (stereo not shown) [H-7, 1-(5-isoquinolinyl-sulfonyl)-2-methylpiperazine]
- drug-free baseline facility vs first baseline (living monkey eye [1]): significant increase in facility
- effect on pupil size (living monkey eye [2]): did have an effect on pupil size
- effect on refraction (living monkey eye [2]): no statistically significant difference in refraction
- facility increase, ciliary muscle disinserted vs non-disinserted eyes [3]: essentially identical proportional increase in outflow facility
- effect on pilocarpine-induced miosis ([4]; H-7 intracameral (~300 μM) or intravitreal (300 μM-1.2 mM)): inhibits ipsilateral pilocarpine-induced miosis
- effect on pupil after phenylephrine ([4]; H-7 intracameral or intravitreal): dilates the ipsilateral pupil even beyond the effect of phenylephrine
- selectivity longitudinal vs circular vector (ciliary muscle strip): no selectivity for one vector over the other
- time to inhibition of the initial pilocarpine contraction (ciliary muscle strip; 10 μM pilocarpine + 300 μM H-7): ≤ 10 min
- contraction to 10 μM pilocarpine after washout (ciliary muscle strip; 90 minute washout after 300 μM H-7): no contraction in either vector
- contraction to 10 μM pilocarpine after washout (ciliary muscle strip; 2.5 hours after removal of H-7): sluggish contraction in both vectors
- change in corneal endothelial cell counts (corneal endothelium): did not reveal a statistical change in cell counts
- corneal endothelial cell morphology (corneal endothelium): no morphological changes in cells were observed

SMILES: C/C1=C\[C@H](C)C[C@H](C)OC(=O)C[C@H](c2ccc(O)cc2)NC(=O)[C@@H](Cc2c(Br)[nH]c3ccccc23)N(C)C(=O)[C@H](C)NC(=O)[C@@H](C)C1 [Jas]
- effect of Jas on Lat B-induced facility increase (living monkey eye [1]): did not affect the 200 nM Lat B-induced facility increase; also recorded: did not affect the 60 nM Lat B-induced facility increase
- effect on outflow facility (living monkey eye [1]): no significant effect on outflow facility
- outflow facility increase, adjusted for baseline and resistance washout in contralateral eyes (living monkey eye [1]): 157±57%

SMILES: CN[C@@H]1C[C@H]2O[C@@](C)([C@@H]1OC)n1c3ccccc3c3c4c(c5c6ccccc6n2c5c31)C(=O)NC4 [staurosporine]
- Facility PRx, Rx/Cont (living monkey eye [1]): 1.99 ± 0.43 and 1.03 ± 0.17 and 1.57 ± 0.25

— patent US6586425B2, “Cytoskeletal active agents for glaucoma therapy” (Wisconsin Alumni Research Foundation, priority 1996, dated 2003)
